# Measured values published in publication PMC12568630, “SNAP-tag2 for faster and brighter protein labeling” (Nature Chemical Biology, 2025).
# Target: T1, hAGT (Homo sapiens, UniProt P16455)
# T1 construct: gene MGMT; parental hAGT
# T1 sequence (P16455 1-207): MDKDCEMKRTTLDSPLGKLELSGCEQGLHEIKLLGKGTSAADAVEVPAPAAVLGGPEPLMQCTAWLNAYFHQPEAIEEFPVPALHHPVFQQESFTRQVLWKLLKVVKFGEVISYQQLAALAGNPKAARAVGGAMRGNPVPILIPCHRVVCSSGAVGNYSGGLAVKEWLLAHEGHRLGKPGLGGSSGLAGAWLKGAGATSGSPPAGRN
# Test: biochemical
# Parameters: fluorescence polarization labeling kinetics of purified tag proteins with TMR substrates, apparent second-order rate constant
# Settings: read-out: hAGT kapp x 10^3
row,kinact/KI,Structure (SMILES)
1,800 ± 40 M⁻¹ s⁻¹,CN(C)c1ccc2c(-c3cc(C(=O)NCc4ccc(COc5cc(Cl)nc(N)n5)cc4)ccc3C(=O)[O-])c3ccc(=[N+](C)C)cc-3oc2c1 [CP–TMR]
2,550 ± 50 M⁻¹ s⁻¹,"CN(C)c1ccc2c(-c3cc(C(=O)NCc4ccc(COc5cc(Cl)nc(N)n5)cc4F)ccc3C(=O)[O-])c3ccc(=[N+](C)C)cc-3oc2c1 [compound 22, CF–TMR]"
3,640 ± 40 M⁻¹ s⁻¹,"CN(C)c1ccc2c(-c3cc(C(=O)NCc4ccc(COc5cc(C(F)(F)F)nc(N)n5)cc4)ccc3C(=O)[O-])c3ccc(=[N+](C)C)cc-3oc2c1 [compound 4, CF3P–TMR]"
4,520 ± 60 M⁻¹ s⁻¹,"CN(C)c1ccc2c(-c3cc(C(=O)NCc4ccc(COc5cc(C(F)(F)F)nc(N)n5)cc4F)ccc3C(=O)[O-])c3ccc(=[N+](C)C)cc-3oc2c1 [compound 30, TF–TMR]"
